Reference: the CATMoS acute toxicity set (Mansouri et al. 2021)

Test: GHS categories as the set defines them, by LD50: 1 up to 5, 2 up to 50, 3 up to 300, 4 up to 2000, 5 above 2000 mg/kg
Conditions: rat; in vivo; po

Compound | GHS category
C[Si]1(C)O[Si](C)(C)O[Si](C)(C)O[Si](C)(C)O[Si](C)(C)O[Si](C)(C)O1 | 5
CC(C)(C=O)CN1CCOCC1 | 5
NCCCC(N)(C(=O)O)C(F)F (configuration not stated) | 5
CCN(CCCCOC(=O)c1ccc(OC)c(OC)c1)C1CCc2cc(OC)ccc2C1 (configuration not stated) | 5
C=C1CC[C@H](O)C/C1=C/C=C1\CCC[C@]2(C)[C@@H]([C@H](C)CC[C@@H](O)C(C)(C)O)CC[C@@H]12 | 2
CCCCN(c1nc(NCCCN(CCN(CCCNc2nc(N(CCCC)C3CC(C)(C)N(C)C(C)(C)C3)nc(N(CCCC)C3CC(C)(C)N(C)C(C)(C)C3)n2)c2nc(N(CCCC)C3CC(C)(C)N(C)C(C)(C)C3)nc(N(CCCC)C3CC(C)(C)N(C)C(C)(C)C3)n2)c2nc(N(CCCC)C3CC(C)(C)N(C)C(C)(C)C3)nc(N(CCCC)C3CC(C)(C)N(C)C(C)(C)C3)n2)nc(N(CCCC)C2CC(C)(C)N(C)C(C)(C)C2)n1)C1CC(C)(C)N(C)C(C)(C)C1 | 5
CCC1Nc2cc(Cl)c(S(N)(=O)=O)cc2S(=O)(=O)N1 (configuration not stated) | 5
COc1c(O)cc2c(c1O)C1OC(CO)C(O)C(O)C1OC2=O (configuration not stated) | 5
O=C1CC(N2C(=O)c3ccccc3C2=O)CC(=O)N1 | 5
N#CCCNCCCCCCNCCC#N | 5
CCC=CCC=CCC=CCC=CCCCCC(=O)OCC | 5
COc1cc2c(cc1OC)C(c1cccc(Cl)c1)=NN=C(C)C2 | 5
COc1ccccc1N1CCN(/C(=N\CC(C)C)Nc2ccc(Cl)c(Cl)c2)CC1 | 4
CC(C)CCCCCCCCCCCCCC=CC1CC(=O)OC1=O (configuration not stated) | 5
CO/C=C(/C(=O)OC)c1ccccc1COc1cccc(C(F)(F)F)n1 | 5
CC(C)(C)c1ccc(C2=C3C(=O)NC(c4ccc(C(C)(C)C)cc4)=C3C(=O)N2)cc1 | 5
C/C1=C\[C@@H](C)C/C=C/[C@H]2[C@@H]3O[C@]3(C)[C@@H](C)[C@H]3[C@H](Cc4c[nH]c5ccccc45)NC(=O)[C@]32C(=O)/C=C/C(=O)[C@@H]1O | 4
CCCCCCC(O)CCCCCCCCCCC(=O)OCC(COC(=O)CCCCCCCCCCC(O)CCCCCC)OC(=O)CCCCCCCCCCC(O)CCCCCC (configuration not stated) | 5
Cc1ccc2ncc(C(=O)NC3CCCC3)c(=O)n2c1 | 3

Compound | GHS category
CC=CCC1=C(C)CCC1 | 5
CCCC(=O)O[C@]1(C(=O)CO)CC[C@H]2[C@@H]3CCC4=CC(=O)CC[C@]4(C)[C@H]3[C@@H](O)C[C@@]21C | 5
CC(C)C1=CC2=CC[C@H]3[C@](C)(CO)CCC[C@]3(C)[C@H]2CC1 | 5
Cn1nnnc1SCCCS(=O)c1ccccn1 (configuration not stated) | 4
CCCC(=O)N(C)C(=O)Oc1cccc2c1OC(C)(C)O2 | 4
OC[C@H]1O[C@@H](OC[C@H]2O[C@@H](O[C@@H]3[C@@H](O)[C@H](O)O[C@H](CO)[C@H]3O)[C@H](O)[C@@H](O[C@@H]3O[C@H](CO)[C@@H](O)[C@H](O)[C@H]3O)[C@@H]2O)[C@H](O)[C@@H](O)[C@@H]1O | 4
CN(C)C(=O)c1cc(C(=O)N(C)C)c2c(n1)C(=O)C(=O)c1cc(C(=O)N(C)C)[nH]c1-2 | 5
Cc1cc(C(C)(C)C)c(O)c(C)c1CC#N | 5
CN(C)Cc1ccccc1Cl | 4
Clc1ccc(Oc2cccc(Cl)c2)cc1 | 5
CCCCOC(=O)c1ccc(-n2nc(OC)c3ccccc32)cc1 | 5
CCCCCCCCCCCC1CC(O)=C(CCCCCC)C(=O)O1 (configuration not stated) | 5
CCOC(=O)[C@H](CCc1ccccc1)N[C@@H](C)C(=O)N1[C@H](C(=O)O)C[C@H]2CCCC[C@@H]21 | 5
CCCCCCCCCCCCCC=O | 5
CCOP(=O)(CN(CCO)CCO)OCC | 5
C[C@H]1CCCC(=O)CCCC=Cc2cc(O)cc(O)c2C(=O)O1 | 5
COc1ccc(C2NC(=O)CCS2)cc1OC (configuration not stated) | 5
C[C@]12C=CC(=O)C=C1CC[C@@H]1[C@@H]2CC[C@@]2(C)[C@H]1CC[C@]2(C)O | 4
